Test results as given in ChEMBL document CHEMBL4831506, “Discovery of novel trimethoxyphenylbenzo[d]oxazoles as dual tubulin/PDE4 inhibitors capable of inducing apoptosis at G2/M phase arrest in glioma and lung cancer cells” (Eur J Med Chem, 2021).

Assays:
NCI-H460 = assay: Antiproliferative activity against human NCI-H460 cells after 48 hrs by MTT assay; format: functional, cell-based; conditions: NCI-H460, 48 h
U-251 [1] = assay: Antiproliferative activity against human U-251 cells after 48 hrs by MTT assay; format: functional, cell-based; conditions: U-251, 48 h
MCF7 = assay: Antiproliferative activity against human MCF7 cells after 48 hrs by MTT assay; format: functional, cell-based; conditions: MCF7, 48 h
A549 [2] = assay: Antiproliferative activity against human A549 cells after 48 hrs by MTT assay; format: functional, cell-based; conditions: A549, 48 h
Sus scrofa [3] = species on record: Sus scrofa; assay: Inhibition of pig brain tubulin polymerization at 10 uM by spectrometric method relative to control; format: tissue-based
[4] = target: 3',5'-cyclic-AMP phosphodiesterase 4C (Homo sapiens, UniProt Q08493); assay: Inhibition of PDE4 CAT (unknown origin)
3',5'-cyclic-AMP phosphodiesterase 4C, sequence (Q08493 whole entry): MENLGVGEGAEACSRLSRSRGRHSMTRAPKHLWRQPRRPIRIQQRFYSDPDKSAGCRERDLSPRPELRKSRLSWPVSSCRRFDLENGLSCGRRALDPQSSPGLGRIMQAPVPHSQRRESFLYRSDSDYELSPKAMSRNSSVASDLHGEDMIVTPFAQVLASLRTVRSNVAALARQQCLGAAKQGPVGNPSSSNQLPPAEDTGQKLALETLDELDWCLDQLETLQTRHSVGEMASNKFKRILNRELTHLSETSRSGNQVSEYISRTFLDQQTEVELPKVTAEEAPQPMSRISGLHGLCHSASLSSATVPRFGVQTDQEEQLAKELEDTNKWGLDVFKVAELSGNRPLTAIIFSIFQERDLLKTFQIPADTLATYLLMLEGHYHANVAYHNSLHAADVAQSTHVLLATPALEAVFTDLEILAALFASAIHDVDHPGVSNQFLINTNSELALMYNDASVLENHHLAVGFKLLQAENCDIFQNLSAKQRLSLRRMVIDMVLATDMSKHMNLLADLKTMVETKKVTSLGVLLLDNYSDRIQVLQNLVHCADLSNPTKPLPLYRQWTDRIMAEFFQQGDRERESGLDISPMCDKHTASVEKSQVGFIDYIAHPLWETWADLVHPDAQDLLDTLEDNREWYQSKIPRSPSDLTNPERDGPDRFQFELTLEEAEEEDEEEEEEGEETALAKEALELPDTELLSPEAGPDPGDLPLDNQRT

Sus scrofa [5] = species on record: Sus scrofa; assay: Inhibition of pig brain tubulin polymerization at 1 uM by spectrometric method relative to control; format: tissue-based
A549 [6] = assay: Induction of apoptosis in human A549 cells assessed as increase in necrotic cells at 500 nM measured after 24 hrs by PI/FITC analysis (reference value: 0.365%); format: functional
U-251 [7] = assay: Cell cycle arrest in human U-251 cells assessed as G2/M phase at 200 nM measured after 24 hrs by propidium iodide staining based flow cytometry analysis (reference value: 14.43%); format: functional
A549 [8] = assay: Induction of apoptosis in human A549 cells assessed as increase in early apoptotic cells at 500 nM measured after 24 hrs by PI/FITC analysis (reference value: 0.955%); format: functional
A549 [9] = assay: Cell cycle arrest in human A549 cells assessed as S phase at 500 nM measured after 24 hrs by propidium iodide staining based flow cytometry analysis (reference value: 14.78%); format: functional
A549 [10] = assay: Induction of apoptosis in human A549 cells assessed as increase in viable cells at 500 nM measured after 24 hrs by PI/FITC analysis (reference value: 98.4%); format: functional
U-251 [11] = assay: Induction of apoptosis in human U-251 cells assessed as increase in viable cells at 200 nM measured after 24 hrs by PI/FITC analysis (reference value: 98.3%); format: functional
U-251 [12] = assay: Cell cycle arrest in human U-251 cells assessed as S phase at 200 nM measured after 24 hrs by propidium iodide staining based flow cytometry analysis (reference value: 18.23%); format: functional
U-251 [13] = assay: Induction of apoptosis in human U-251 cells assessed as increase in early apoptotic cells at 200 nM measured after 24 hrs by PI/FITC analysis (reference value: 1.12%); format: functional
A549 [14] = assay: Cell cycle arrest in human A549 cells assessed as G2/M phase at 500 nM measured after 24 hrs by propidium iodide staining based flow cytometry analysis (reference value: 6.08%); format: functional
U-251 [15] = assay: Cell cycle arrest in human U-251 cells assessed as G0/G1 phase at 200 nM measured after 24 hrs by propidium iodide staining based flow cytometry analysis (reference value: 67.34%); format: functional
U-251 [16] = assay: Induction of apoptosis in human U-251 cells assessed as increase in necrotic cells at 200 nM measured after 24 hrs by PI/FITC analysis (reference value: 0.301%); format: functional
A549 [17] = assay: Cell cycle arrest in human A549 cells assessed as G0/G1 phase at 500 nM incubated for 24 hrs by propidium iodide staining based flow cytometry analysis (reference value: 79.14%); format: functional
U-251 [18] = assay: Induction of apoptosis in human U-251 cells assessed as increase in late apoptotic cells at 200 nM measured after 24 hrs by PI/FITC analysis (reference value: 0.311%); format: functional

Structure (SMILES)	IC50 (NCI-H460)	IC50 (U-251 [1])	IC50 (MCF7)	IC50 (A549 [2])	further results
COc1cc(-c2nc3cccc(-c4cc(OC)c(OC)c(OC)c4)c3o2)ccc1O	2 µM	10.3 µM	> 25 µM	15.7 µM	
COc1ccc(-c2nc3c(-c4cc(OC)c(OC)c(OC)c4)cccc3o2)cc1F	19.9 µM	19.4 µM	> 25 µM	> 25 µM	
COc1cc(-c2cccc3nc(-c4cccc(C)c4)oc23)cc(OC)c1OC	> 25 µM	> 25 µM	> 25 µM	16.7 µM	
COc1cc(-c2cccc3nc(-c4cccs4)oc23)cc(OC)c1OC	1.6 µM	3 µM	> 25 µM	12.5 µM	inhibition (Sus scrofa [3]): 0%; IC50 [4]: 0.57 µM
COc1cc(-c2cccc3oc(-c4ccccc4)nc23)cc(OC)c1OC	9 µM	> 25 µM	> 25 µM	> 25 µM	
COc1cc(-c2cccc3oc(-c4ccc(Cl)cc4)nc23)cc(OC)c1OC	8.6 µM	> 25 µM	> 25 µM	> 25 µM	
COc1cc(-c2cccc3nc(-c4ccco4)oc23)cc(OC)c1OC	2.6 µM	10.6 µM	> 25 µM	10.3 µM	inhibition (Sus scrofa [3]): 0%; IC50 [4]: 3.3 µM
COc1ccc(-c2nc3cccc(-c4cc(OC)c(OC)c(OC)c4)c3o2)cc1	3.5 µM	> 25 µM	> 25 µM	2.2 µM	
COc1cc(-c2cccc3nc(-c4cccc(Br)c4)oc23)cc(OC)c1OC	3.8 µM	6.8 µM	> 25 µM	2.1 µM	
COc1cc(-c2cccc3oc(-c4ccc(F)cc4)nc23)cc(OC)c1OC	22.1 µM	> 25 µM	> 25 µM	> 25 µM	
COc1ccc(-c2nc3c(-c4cc(OC)c(OC)c(OC)c4)cccc3o2)cc1OC	8.9 µM	> 25 µM	> 25 µM	20.1 µM	
COc1cc(-c2cccc3oc(-c4cccc(F)c4)nc23)cc(OC)c1OC	> 25 µM	> 25 µM	> 25 µM	> 25 µM	
COc1cc(-c2cccc3nc(-c4ccc(F)cc4)oc23)cc(OC)c1OC	8.7 µM	> 25 µM	> 25 µM	8.7 µM	
COc1cc(-c2cccc3nc(-c4ccc(N)cc4)oc23)cc(OC)c1OC	0.31 µM	1.04 µM	> 25 µM	0.72 µM	inhibition (Sus scrofa [3]): 36%; inhibition (Sus scrofa [5]): 11%
COc1cc(-c2cccc3oc(-c4ccc(C)cc4)nc23)cc(OC)c1OC	3.1 µM	16.2 µM	> 25 µM	20.2 µM	
COc1cc(-c2cccc3nc(-c4cccc(N)c4)oc23)cc(OC)c1OC	2.6 µM	2.2 µM	> 25 µM	4.7 µM	inhibition (Sus scrofa [3]): 19%; inhibition (Sus scrofa [5]): 14%
COc1cc(-c2cccc3nc(-c4ccc(Cl)cc4)oc23)cc(OC)c1OC	> 25 µM	1.6 µM	> 25 µM	5.6 µM	
COc1ccc(/C=C\c2cc(OC)c(OC)c(OC)c2)cc1O [COMBRETASTATIN A4]	0.076 µM	0.13 µM	0.42 µM	0.6 µM	Activity (A549 [6]): 0.412%; Activity (U-251 [7]): 42.9%; Activity (A549 [8]): 10.1%; Activity (A549 [9]): 22.31%; inhibition (Sus scrofa [3]): 94%; Activity (A549 [10]): 77.9%; Activity (U-251 [11]): 92.1%; Activity (U-251 [12]): 22.47%; Activity (U-251 [13]): 4.02%; Activity (A549 [14]): 40.07%; Activity (U-251 [15]): 34.64%; Activity (U-251 [16]): 1.96%; Activity (A549 [17]): 37.63%; inhibition (Sus scrofa [5]): 52%; Activity (U-251 [18]): 11.9%
COc1cc(-c2cccc3nc(-c4ccccc4)oc23)cc(OC)c1OC	6.8 µM	3.5 µM	> 25 µM	20.3 µM	
COc1cc(-c2cccc3nc(-c4ccc(Br)cc4)oc23)cc(OC)c1OC	> 25 µM	> 25 µM	> 25 µM	> 25 µM	
COc1ccc(-c2nc3cccc(-c4cc(OC)c(OC)c(OC)c4)c3o2)cc1F	2.8 µM	1.7 µM	> 25 µM	1.8 µM	
COc1cc2c(c(OC)c1OC)-c1ccc(OC)c(=O)cc1[C@@H](NC(C)=O)CC2 [COLCHICINE]		0.017 µM	0.04 µM	0.024 µM	
COc1ccc(-c2cccc3nc(-c4ccc5cc[nH]c5c4)oc23)c(OC)c1OC	> 25 µM	9.5 µM	> 25 µM	9.6 µM	
COc1cc(-c2cccc3nc(-c4ccc(C)cc4)oc23)cc(OC)c1OC	1.9 µM	3.2 µM	> 25 µM	0.68 µM	inhibition (Sus scrofa [3]): 18%
COc1cc(-c2cccc3nc(-c4cccc(Cl)c4)oc23)cc(OC)c1OC	> 25 µM	18.5 µM	> 25 µM	> 25 µM	
COc1cc(-c2cccc3nc(-c4cccc(F)c4)oc23)cc(OC)c1OC	3.3 µM	2.9 µM	> 25 µM	2.6 µM	
COc1ccc(-c2nc3cccc(-c4cc(OC)c(OC)c(OC)c4)c3o2)cc1OC	> 25 µM	1.3 µM	> 25 µM	2.8 µM	
COc1cccc(-c2nc3cccc(-c4cc(OC)c(OC)c(OC)c4)c3o2)c1	> 25 µM	> 25 µM	> 25 µM	3.5 µM	
COc1cc(OC)cc(-c2nc3c(-c4cc(OC)c(OC)c(OC)c4)cccc3o2)c1	5.7 µM	> 25 µM	> 25 µM	16.3 µM	
